Assay results reported in article PMC9252919, “Controlled masking and targeted release of redox-cycling ortho-quinones via a C–C bond-cleaving 1,6-elimination” (Nature Chemistry, 2022).

Experiments:
AML cell line MOLM-13 = test: Viability assay with small-molecule prodrugs, MOLM-13; assay type: cell-based; settings: MOLM-13
Description: (§1) For assays assessing cytotoxicity of β-lapachone versus small-molecule prodrugs, antibodies and ADCs, suspension cells were plated into 24-well plates at a density of 2.5 × 10^5 cells ml^−1 in 240 µl. Stocks of ADC or antibody in PBS were normalized to 12.5 µM. Serial dilutions of compound were made up in PBS. Then, 60 µl of each stock of either PBS or compound in PBS was added to the cells to achieve the desired final concentration. After the specified incubation time, toxicity was assessed by counting of live cells using the trypan blue exclusion method with a Countess II Automated Cell Counter (ThermoFisher Scientific) according to the manufacturer’s instructions. Cell viability was determined by dividing the average live cell number of treated wells by the average live cell number for control wells treated with PBS only. IC50 values were calculated using GraphPad Prism software. Note: for the assay performed over 96 h, 5% human serum was added to media instead of 10% fetal bovine serum, to limit non-specific antibody internalisation. This had little effect on ADC toxicity.

CD33+ HL-60 cells = test: Viability assay with small-molecule prodrugs and ADCs, HL-60; assay type: cell-based, human
Description: as §1

HL-60 cells = test: Lysosomal deacidification and inhibition assay; assay type: cell-based, human; settings: HL-60
Description: Assays to assess the effect of lysosomal activity on prodrugs were performed as follows: HL-60 cells were plated into 96-well plates at a concentration of 2.5 × 10^5 cells ml^−1 in 180 µl media. Cells were treated with 10 µl of a stock of NH4Cl in PBS (to obtain an in-plate concentration of 3 or 30 mM), 10 µl of a dilution of a DMSO stock of E64d in PBS (to obtain an in-plate concentration of 30 μM), PBS only or a dilution of DMSO in PBS. Cells were incubated for 30 min. Following this, 10 µl of a stock of test compound made by dilution of a DMSO stock into media was added. DMSO was present in-plate at a maximum of 0.2%. Cells were incubated overnight for 16 h. Following incubation, media was replaced with media containing CellTiter-Blue (Promega) in 1:4 dilution and the plates were incubated for 6 h. The fluorescence of the plates was recorded (excitation, 555 nm; emission, 585 nm; MiniMax i3x Reader, Molecular Devices). Cell viability was calculated by division of the fluorescence intensity of treated wells by that of the average fluorescence intensity of the relevant negative control wells.

HEL cells = test: Viability assay with ADCs, HEL, trypan blue exclusion; assay type: cell-based, human; settings: 96 h
Description: as §1

Row | IC50 relative to 1 in MOLM-13 (AML cell line MOLM-13) | IC50 relative to 1 in HL-60 (CD33+ HL-60 cells) | Molecule | toxicity after lysosomal deacidification (NH4Cl) or inhibition (E64d) (HL-60 cells) | toxicity to HEL at 2.5 µM (HEL cells; 2.5 µM) | in vitro toxicity against HEL (HEL cells; live cell count)
1 | 10 fold | 10 fold | CC(C)C(NC(=O)OCc1ccccc1)C(=O)NC(CCCNC(N)=O)C(=O)Nc1ccc(CC2(O)C(=O)C3=C(OC(C)(C)CC3)c3ccccc32)cc1 (centres unmarked) [Compound 26] | less toxic | – | –
2 | – | – | Gem-IgG1: native IgG1 antibody containing the variable region of gemtuzumab (antibody, chains of the INN, looked up, V domains shown, IgG1, native IgG1 antibody containing the variable region of gemtuzumab) VH: EVQLVQSGAEVKKPGSSVKVSCKASGYTITDSNIHWVRQAPGQSLEWIGYIYPYNGGTDYNQKFKNRATLTVDNPTNTAYMELSSLRSEDTAFYYCVNGNPWLAYWGQGTLVTVSS VL: DIQLTQSPSTLSASVGDRVTITCRASESLDNYGIRFLTWFQQKPGKAPKLLMYAASNQGSGVPSRFSGSGSGTEFTLTISSLQPDDFATYYCQQTKEVPWSFGQGTKVEVK | – | no toxicity | no apparent toxicity
